Results: article PMC9137698, “Development of New Antimycobacterial Sulfonyl Hydrazones and 4-Methyl-1,2,3-thiadiazole-Based Hydrazone Derivatives” (Antibiotics, 2022)
≈ marks a conversion by molar mass, not a printed value. Like-named read-outs stand apart in the source and are kept apart here.

Columns and labels:
[1] = test system: M. tuberculosis strain H37Rv; assay: EUCAST broth microdilution MIC determination; format: cell-based, Mycobacterium tuberculosis
[2] = test system: CCL-1 mouse fibroblast cell line; assay: MTT cytotoxicity assay, CCL-1; format: cell-based; settings: for selectivity index SI, CCL-1: ratio of IC50 to MIC; for IC50: Mus musculus
Experimental: (§1) The cytostatic activity of the investigational compounds was determined using a standard MTT-based colorimetric assay for evaluating cell viability. HEK-293 and CCL-1 cells were harvested and seeded (100 µL/well) in 96-well plates at a density of 3 × 10^5. Following a 24 h incubation, the cells were treated with serial dilutions of the tested compounds in the concentration range of 200.0–12.5 µM. Following an exposure time of 72 h, a filter-sterilized MTT substrate solution (5 mg/mL in PBS) was added to each well of the culture plate. A further 1–4 h incubation allowed the formation of purple insoluble precipitates of the formazan dye. The latter was dissolved in an isopropyl alcohol solution containing 5% formic acid for absorbance measurement at 550 nm. The collected absorbance values were blanked against MTT-and isopropanol solution and normalized to the mean value of the untreated control (100% cell viability).
(§2) Semi-logarithmic “dose-response” curves were computed using nonlinear regression in GraphPad Prism® 8.0. The antiproliferative potential of the studied compounds was rated according to the calculated half-maximal inhibitory concentrations (IC50 values).

[3] = test system: HEK-293 (human embryonic kidney 293) cells; assay: MTT cytotoxicity assay, HEK-293; format: cell-based; settings: for selectivity index SI, HEK-293 / selectivity indices (SI): ratio of IC50 to MIC; for IC50: Homo sapiens; for selectivity indices (SI): both cell lines HEK-293 and CCL-1
Experimental: as §1, §2

[4] = M. tuberculosis strain H37Rv, lowest concentration without visual growth, read-out: MIC a
[5] = Mycobacterium tuberculosis, H37RV, M. tuberculosis strain H37Rv, lowest concentration without visual growth, read-out: MIC a
[6] = Mycobacterium tuberculosis, H37RV, read-out: MIC a (µM)
[7] = CCL-1, 72 h, read-out: IC50 (µM) b CCL-1
[8] = HEK293, 72 h, read-out: IC50 (µM) c HEK-293

Cc1nnsc1C(=O)N/N=C/c1c(Cl)c2ccccc2oc1=O [3a, N’-[(E)-(4-chloro-2-oxo-2H-1-benzopyran-3-yl)methylidene]-4-methyl-1,2,3-thiadiazole-5-carbohydrazide]
MIC [1, 4]: 0.3914 µM (≈ 0.137 µg/mL) | MIC [1, 5]: < 0.4 µM

COc1ccc2c(c1)c(/C=N/NC(=O)c1snnc1C)cn2C [3b, N’-[(E)-(5-methoxy-1-methyl-1H-indol-3-yl)methylidene]-4-methyl-1,2,3-thiadiazole-5-carbohydrazide]
MIC [1, 4]: 0.3294 µM (≈ 0.108 µg/mL) | MIC [1, 5]: < 0.4 µM

Cc1nnsc1C(=O)N/N=C/c1c[nH]c2ccc(OCc3ccccc3)cc12 [3c, N’-((E)-[5-(benzyloxy)-1H-indol-3-yl]methylidene)-4-methyl-1,2,3-thiadiazole-5-carbohydrazide]
selectivity index SI, CCL-1 ([2]; as assigned in running text): 4093 | selectivity index SI, HEK-293 ([3]; as assigned in running text): 2242

COc1cc(/C=N/NC(=O)c2snnc2C)ccc1O [3d, N’-[(E)-(4-hydroxy-3-methoxyphenyl)methylidene]-4-methyl-1,2,3-thiadiazole-5-carbohydrazide]
MIC [1, 5]: < 0.1 µM | IC50 ([2]; Fibroblast, MTT, as assigned in running text, read-out: IC50, mouse fibroblast cells CCL-1): 218 µM | selectivity index SI, CCL-1 ([2]; as assigned in running text): 2979 | IC50 ([3]; HEK293, MTT, as assigned in running text, read-out: IC50, human embryonic kidney cells HEK-29): 257 µM | selectivity index SI, HEK-293 ([3]; as assigned in running text): 3516

COc1ccc2c(c1)c(/C=N/NS(=O)(=O)c1ccccc1)cn2C [5b, N’-[(E)-(5-methoxy-1-methyl-1H-indol-3-yl)methylidene]benzenesulfonohydrazide]
MIC [1, 4]: 0.2027 µM (≈ 0.0696 µg/mL) | MIC [1, 5]: < 0.4 µM

O=S(=O)(N/N=C/c1c[nH]c2ccc(OCc3ccccc3)cc12)c1ccccc1 [5c]
MIC [1, 6]: 0.343 µM (≈ 0.139 µg/mL) | IC50 [2, 7]: 321 ± 16.2 µM | IC50 [3, 8]: 32.3 ± 1.5 µM

O=S(=O)(N/N=C/c1c[nH]c2ccc(Cl)cc12)c1ccccc1 [5d, N’-[(E)-(5-chloro-1H-indol-3-yl)methylidene]benzenesulfonohydrazide]
MIC [1, 5]: 0.167 µM (≈ 0.0557 µg/mL)

COc1ccc2[nH]cc(/C=N/NS(=O)(=O)c3ccccc3)c2c1 [5e, N’-[(E)-(5-methoxy-1H-indol-3-yl)methylidene]benzenesulfonohydrazide]
MIC [1, 5]: 0.165 µM (≈ 0.0542 µg/mL)

O=[N+]([O-])c1ccccc1/C=N/NS(=O)(=O)c1ccccc1 [5f, N’-[(E)-(2-nitrophenyl)methylidene]benzenesulfonohydrazide]
MIC [1, 5]: 0.305 µM (≈ 0.0932 µg/mL)

O=[N+]([O-])c1ccc(/C=N/NS(=O)(=O)c2ccccc2)cc1 [5g, N’-[(E)-(4-nitrophenyl)methylidene]benzenesulfonohydrazide]
MIC [1, 5]: < 0.1 µM | selectivity indices (SI) [3]: > 1000

O=S(=O)(N/N=C/c1ccc(Cl)cc1)c1ccccc1 [5i, N’-[(E)-(4-chlorophenyl)methylidene]benzenesulfonohydrazide]
MIC [1, 6]: 0.147 µM (≈ 0.0434 µg/mL) | IC50 [2, 7]: 131 ± 11.4 µM | IC50 [3, 8]: 100 ± 9.3 µM

COc1ccc(/C=N/NS(=O)(=O)c2ccccc2)cc1OC [5j, N’-[(E)-(3,4-dimethoxyphenyl)methylidene]benzenesulfonohydrazide]
MIC [1, 6]: 0.321 µM (≈ 0.103 µg/mL) | IC50 [2, 7]: 83.5 ± 7 µM | IC50 [3, 8]: 47.4 ± 6.8 µM

O=S(=O)(N/N=C/C=C/c1ccccc1)c1ccccc1 [5k, N’-[(1E,2E)-3-phenylprop-2-en-1-ylidene]benzenesulfonohydrazid]
MIC [1, 5]: < 0.1 µM | selectivity index SI, CCL-1 ([2]; as assigned in running text): 2216 | selectivity index SI, HEK-293 ([3]; as assigned in running text): 3380 | selectivity indices (SI) [3]: > 1000

NNC(=O)c1ccncc1 [INH, isoniazid, reference compound]
MIC [1, 5]: 0.0343 µM (≈ 0.0047 µg/mL)

N’-[(E)-(3-hydroxy-4-methoxyphenyl)methylidene]benzenesulfonohydrazide [5h]
MIC [1, 4]: 0.3203 µM
